# In patent publication US11000033B2, “Ketone or oxime compound, and herbicide” (NISSAN CHEMICAL CORPORATION, priority 2014, dated 2021):
# Columns and labels:
# Format in all cases: in vivo
# Avena fatua = assay: Test Example 5: herbicidal effect by foliage application, plastic box (symbol I); conditions: 320 g/ha, 3 weeks after application
# Summary of the method: (§1)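 Seeds were sown in sterilized diluvial soil, covered with about 1.5 cm of soil and grown 14 days in a greenhouse at 25° C. to 30° C. An emulsifiable formulation diluted in water to a set rate was sprayed over foliage, and injury was scored 3 weeks later.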
# Stellaria media = assay: Test Example 5: herbicidal effect by foliage application, plastic box (symbol P); conditions: 320 g/ha, 3 weeks after application
# Summary of the method: as §1
# Digitaria ciliaris [1] = assay: Test Example 4: herbicidal effect by soil treatment (symbol F); conditions: 320 g/ha
# Summary of the method: (§2)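 Seeds were sown in sterilized diluvial soil, covered with about 1.5 cm of soil, and the soil surface was sprayed with a water-diluted emulsion of the compound at a predetermined rate. Plants grew in a greenhouse at 25° C. to 30° C.; effects were scored visually 3 weeks after application.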
# wheat = assay: Test Example 5: effect on crop by foliage application, plastic box (symbol e); conditions: 320 g/ha, 3 weeks after application
# Summary of the method: (§3)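 Foliage-application test plants come from spot sowing in sterilized diluvial soil under a soil layer of about 1.5 cm, grown at 25° C. to 30° C. in a greenhouse.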
# Leptochloa chinensis = assay: Test Example 3: herbicidal effect by foliage application, Wagner pot (symbol D); conditions: application herbicide amount 320 g/ha
# Summary of the method: (§4)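 In a shallow-flooded alluvial soil system held at 25–30 °C, plants including rice grew for 14 days and were then sprayed over the foliage with emulsion diluted to a fixed herbicide amount. Visual rating followed at 3 weeks.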
# Lolium multiflorum Lam. = assay: Test Example 4: herbicidal effect by soil treatment (symbol K); conditions: 320 g/ha
# Summary of the method: as §2
# beet = assay: Test Example 5: effect on crop by foliage application, plastic box (symbol f); conditions: 320 g/ha, 3 weeks after application
# Summary of the method: as §3
# [2] = test system: Echinochloa crus-galli var. crus-galli; assay: Test Example 3: herbicidal effect by foliage application, Wagner pot (symbol H); conditions: application herbicide amount 320 g/ha
# Summary of the method: as §4
# rapeseed = assay: Test Example 4: effect on crop by soil treatment (symbol g); conditions: 320 g/ha
# Summary of the method: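 Grown at 25° C. to 30° C. in a greenhouse, the crops came from seed sown spot-wise in sterilized diluvial soil under roughly 1.5 cm of covering soil.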
# rice plant = assay: Test Example 5: effect on crop by foliage application, plastic box (symbol b); conditions: 320 g/ha, 3 weeks after application
# Summary of the method: as §3
# Veronica persica = assay: Test Example 5: herbicidal effect by foliage application, plastic box (symbol R); conditions: 320 g/ha, 3 weeks after application
# Summary of the method: as §1
# Abutilon theophrasti = assay: Test Example 4: herbicidal effect by soil treatment (symbol M); conditions: 320 g/ha
# Summary of the method: as §2
# Scirpus juncoides = assay: Test Example 2: herbicidal activity, application during weed generation in submerged conditions (symbol B); conditions: Table 23; application herbicide amount 320 g/ha; grade 0-5 by criteria of Test Example 1
# Summary of the method: (§5)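 Compound was applied as a water-diluted emulsion into the standing water of flooded pots (4 cm) once co-sown weeds reached one to two leaves. Greenhouse temperature was 25° C. to 30° C., soil was alluvial, and each species was rated visually after 3 weeks.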
# [3] = test system: Echinochloa crus-galli var. crus-galli; assay: Test Example 4: herbicidal effect by soil treatment (symbol H); conditions: 320 g/ha
# Summary of the method: as §2
# Digitaria ciliaris [4] = assay: Test Example 5: herbicidal effect by foliage application, plastic box (symbol F); conditions: 320 g/ha, 3 weeks after application
# Summary of the method: as §1
# Amaranthus retroflexus [5] = assay: Test Example 5: herbicidal effect by foliage application, plastic box (symbol N); conditions: 320 g/ha, 3 weeks after application
# Summary of the method: as §1
# Chenopodium album = assay: Test Example 5: herbicidal effect by foliage application, plastic box (symbol O); conditions: 320 g/ha, 3 weeks after application
# Summary of the method: as §1
# [6] = test system: Echinochloa oryzacola Vasing.; assay: Test Example 2: herbicidal activity, application during weed generation in submerged conditions (symbol A); conditions: Table 23; application herbicide amount 320 g/ha; grade 0-5 by criteria of Test Example 1
# Summary of the method: as §5
# Amaranthus retroflexus [7] = assay: Test Example 4: herbicidal effect by soil treatment (symbol N); conditions: 320 g/ha
# Summary of the method: as §2
Compound,"I: Avena fatua, herbicidal effect grade (Avena fatua)","P: Stellaria media, herbicidal effect grade (Stellaria media)","F: Digitaria ciliaris, herbicidal effect grade (Digitaria ciliaris [1])","e: wheat, effect on crop grade (wheat)","herbicidal effect on D (Leptochloa chinensis), grade 0-5 (Leptochloa chinensis)","K: Lolium multiflorum Lam., herbicidal effect grade (Lolium multiflorum Lam.)","f: beet, effect on crop grade (beet)","herbicidal effect on H (Echinochloa crus-galli var. crus-galli), grade 0-5 [2]","g: rapeseed, effect grade on crop (rapeseed)","b: directly sowed rice plant, effect on crop grade (rice plant)","R: Veronica persica, herbicidal effect grade (Veronica persica)","M: Abutilon theophrasti, herbicidal effect grade (Abutilon theophrasti)","Herbicidal effect grade, B: Scirpus juncoides (Scirpus juncoides)","H: Echinochloa crus-galli var. crus-galli, herbicidal effect grade [3]","F: Digitaria ciliaris, herbicidal effect grade (Digitaria ciliaris [4])","N: Amaranthus retroflexus, herbicidal effect grade (Amaranthus retroflexus [5])","O: Chenopodium album, herbicidal effect grade (Chenopodium album)","Herbicidal effect grade, A: Echinochloa oryzacola Vasing. [6]","N: Amaranthus retroflexus, herbicidal effect grade (Amaranthus retroflexus [7])"
CON=C(C)CC1CC(OC(=O)N(C)c2ccccc2)=C(c2c(C)cc(C)cc2C)C1=O (stereo not drawn) [1-159],5 (Herbicidal ratio of 90% or more (almost completely withered)),0 (Herbicidal ratio of 5% or lower (almost no effect)),4 (Herbicidal ratio of 70% or higher and lower than 90%),2 (Herbicidal ratio of 20% or higher and lower than 40%),5 (Herbicidal ratio of 90% or more (almost completely withered)),5 (Herbicidal ratio of 90% or more (almost completely withered)),2 (Herbicidal ratio of 20% or higher and lower than 40%),4 (Herbicidal ratio of 70% or higher and lower than 90%),0 (Herbicidal ratio of 5% or lower (almost no effect)),3 (Herbicidal ratio of 40% or higher and lower than 70%),0 (Herbicidal ratio of 5% or lower (almost no effect)),0 (Herbicidal ratio of 5% or lower (almost no effect)),1 (Herbicidal ratio of 5% or higher and lower than 20%),3 (Herbicidal ratio of 40% or higher and lower than 70%),5 (Herbicidal ratio of 90% or more (almost completely withered)),3 (Herbicidal ratio of 40% or higher and lower than 70%),0 (Herbicidal ratio of 5% or lower (almost no effect)),4 (Herbicidal ratio of 70% or higher and lower than 90%),0 (Herbicidal ratio of 5% or lower (almost no effect))
CON=C(C)CC1CC(OC(=O)c2c(Cl)nn(C)c2Cl)=C(c2c(C)cc(C)cc2C)C1=O (stereo not drawn) [1-160],5 (Herbicidal ratio of 90% or more (almost completely withered)),3 (Herbicidal ratio of 40% or higher and lower than 70%),5 (Herbicidal ratio of 90% or more (almost completely withered)),5 (Herbicidal ratio of 90% or more (almost completely withered)),5 (Herbicidal ratio of 90% or more (almost completely withered)),5 (Herbicidal ratio of 90% or more (almost completely withered)),5 (Herbicidal ratio of 90% or more (almost completely withered)),5 (Herbicidal ratio of 90% or more (almost completely withered)),4 (Herbicidal ratio of 70% or higher and lower than 90%),5 (Herbicidal ratio of 90% or more (almost completely withered)),3 (Herbicidal ratio of 40% or higher and lower than 70%),4 (Herbicidal ratio of 70% or higher and lower than 90%),4 (Herbicidal ratio of 70% or higher and lower than 90%),5 (Herbicidal ratio of 90% or more (almost completely withered)),5 (Herbicidal ratio of 90% or more (almost completely withered)),0 (Herbicidal ratio of 5% or lower (almost no effect)),2 (Herbicidal ratio of 20% or higher and lower than 40%),5 (Herbicidal ratio of 90% or more (almost completely withered)),4 (Herbicidal ratio of 70% or higher and lower than 90%)
CON=C(C)CC1CC(OS(=O)(=O)c2ccc(C)cc2)=C(c2c(C)cc(C)cc2C)C1=O (stereo not drawn) [1-161],4 (Herbicidal ratio of 70% or higher and lower than 90%),0 (Herbicidal ratio of 5% or lower (almost no effect)),5 (Herbicidal ratio of 90% or more (almost completely withered)),2 (Herbicidal ratio of 20% or higher and lower than 40%),5 (Herbicidal ratio of 90% or more (almost completely withered)),3 (Herbicidal ratio of 40% or higher and lower than 70%),0 (Herbicidal ratio of 5% or lower (almost no effect)),4 (Herbicidal ratio of 70% or higher and lower than 90%),2 (Herbicidal ratio of 20% or higher and lower than 40%),3 (Herbicidal ratio of 40% or higher and lower than 70%),0 (Herbicidal ratio of 5% or lower (almost no effect)),0 (Herbicidal ratio of 5% or lower (almost no effect)),4 (Herbicidal ratio of 70% or higher and lower than 90%),0 (Herbicidal ratio of 5% or lower (almost no effect)),4 (Herbicidal ratio of 70% or higher and lower than 90%),0 (Herbicidal ratio of 5% or lower (almost no effect)),0 (Herbicidal ratio of 5% or lower (almost no effect)),5 (Herbicidal ratio of 90% or more (almost completely withered)),0 (Herbicidal ratio of 5% or lower (almost no effect))
